Results: paper PMC9231138, “Dihydrotanshinone I Enhances Cell Adhesion and Inhibits Cell Migration in Osteosarcoma U−2 OS Cells through CD44 and Chemokine Signaling” (Molecules, 2022)
Where two headings read alike, the source gives them in different places.

How the values were obtained:
[1] = system: U−2 OS cells; test: MTT cell proliferation assay, U−2 OS cells; type: cell-based; settings: Homo sapiens, U2OS
Method: The effects of tanshinones (DS−1 to DS−5) on the proliferation of U−2 OS cells, HeLa cells, and NRK−49F cells were measured by the classical MTT method with minor modifications as follows. Cells were seeded at 5000 per well in 96-well plates, with each group being repeated in 5 wells, and were incubated for 12 h. DS−1 to DS−5 were added at gradient concentrations, then incubated for 24 and 48 h, respectively. Then, 20 μL MTT solution (solved in PBS, 5 mg/mL) was added to every well, and the cells were further incubated at 37 °C for 4 h until a purple precipitate was visible. The plate was centrifuged at 1000 rpm for 1 min; the supernatant was suctioned, and 150 μL of DMSO was added per well; the plate was shaken on a shaker protected from light for 15 min. We placed the plate in an enzyme marker and measured the absorbance values at a 490 nm wavelength.

[2] = system: CDK2; test: RT-PCR CDK2 mRNA in U−2 OS cells; type: cell-based, human; settings: 24 h
Method: (§1) Total RNA within cells was extracted by the RNAeasy™ Animal Long RNA Isolation Kit with Spin Column (Shanghai, Beyotime); the concentrations and OD260/OD280 and OD230/OD260 values were measured by NanoDrop. Five micrograms of RNA was used for reverse transcription; each sample was diluted to 16 μL, and 4 μL of synthesized premix solution (5×) was added, then the mixtures were placed in a 42 °C water bath for 10 min, then an 80 °C water bath for 10 min to deactivate reverse transcriptase. After reverse transcription, each sample was diluted to 140 μL. PCR amplification was carried out by the ABI700 real-time PCR system, and the amplification reaction was detected with a SYBR probe. After PCR, actin and GAPDH were used as internal references, and the relative standard curve method (2^−ΔΔcT) determined the relative expression of mRNA.

[3] = system: CDK4; test: RT-PCR CDK4 mRNA in U−2 OS cells; type: cell-based, human; settings: 24 h
Method: as §1

[4] = system: p21; test: RT-PCR p21 mRNA in U−2 OS cells; type: cell-based, human; settings: 24 h
Method: as §1

[5] = system: U−2 OS cells; test: Cell adhesion: trypsin digestion time, U−2 OS cells; type: cell-based, human; settings: DS−1 7.5 μM for 24 h, trypsin at 25 °C; control within 120 s
Method: We wondered if there were other pathways affecting cell migration besides EMT signals.
Figure 7 DS−1 enhanced U−2 OS cells’ adhesion. (A) The morphological changes of U−2 OS cells treated with/without DS−1. Cells were treated with 0 and 7.5 μM DS−1 for 24 h, washed with PBS, and digested with trypsin at 25 °C under a microscope, and photos were taken every 30 s. The percentages of digested cells are recorded in (B). (C) Heatmap of genes related to the adherens’ junction in the control group and DS−1 group. (D) U−2 OS cells were treated with 0 and 7.5 μM DS−1 for 24 h, and the expression of CD44 was observed by immunofluorescence. (E,F) CD44 and GAPDH were analyzed by Western blot and calculated by Image J. (G) The relative expression of 4 kinds of MT-MMPs was analyzed by the transcriptome, as shown in the heatmap. (H) After being treated with DS−1, the relative expression of MT-MMP-1 was verified by RT-PCR. Values are the average of three independent experiments, * p < 0.05, ** p < 0.01, *** p < 0.005.

[6] = system: AKT; test: Western blot AKT; type: cell-based, human; settings: DS−1 2.5, 5.0, and 7.5 µM, 24 h
Method: (§2) Sample preparation: U−2 OS cells seeded in 10 cm Petri dishes were collected and washed with ice-cold PBS and RIPA lysis buffer with PMAF; phosphatase inhibitor was added, and the tubes were placed on ice for 30 min and vortexed for 30 s at intervals of 10 min. The samples were centrifuged at 12,000 g at 4 °C for 15 min, and the supernatants were collected in new centrifuge tubes. The protein samples were placed on ice, and the concentration of each protein sample was measured by the BCA kit (Thermo). The protein concentration was adjusted to the same by milli Q ultrapure water.
(§3) Loading and running the gel: Equal amounts of protein were loaded into the wells of the 10% SDS-PAGE gel, along with molecular weight markers, and 15 μg of total protein from the cell lysate was loaded. We then ran the gel for 45 min at 200 V.
(§4) Transferring the protein: We prepared the transfer stack as follows: negative plate, sponge, filter paper, gel, PVDF membrane, filter paper, sponge, and positive plate. The transfer was for 90 min at 200 mA.
Antibody staining: We blocked the membrane for 1 h at room temperature using 5% blocking solution, then incubated the membrane with appropriate dilutions of the primary antibody in the blocking solution overnight at 4 °C. […] Images were acquired using darkroom development techniques for chemiluminescence and analyzed by Image J.

[7] = system: pAKT; test: Western blot pAKT; type: cell-based, human; settings: 24 h
Method: as §2, §3, §4
Antibody staining: We blocked the membrane for 1 h at room temperature using 5% blocking solution, then incubated the membrane with appropriate dilutions of the primary antibody in the blocking solution overnight at 4 °C. We then washed the membrane with TBST reagent 3 times, 5 min each. Then, we incubated the membrane with the recommended dilution of labeled secondary antibody in blocking solution at room temperature for 1 h and washed the membrane with TBST reagent 3 times, 5 min each. For signal development, super-enhanced chemiluminescence detection reagents were added to the surface of the membrane for 1 min, then excess reagent was removed, and the membrane was covered in transparent plastic wrap. Images were acquired using darkroom development techniques for chemiluminescence and analyzed by Image J.

[8] = first of three DS−1 doses (2.5 µM per Fig. 5 legend)
[9] = second of three DS−1 doses (5.0 µM per Fig. 5 legend)
[10] = third of three DS−1 doses (7.5 µM per Fig. 5 legend)

Cc1cccc2c3c(ccc12)C1=C(C(=O)C3=O)[C@@H](C)CO1 [DS−1, 15,16-Dihydrotanshinone I]
IC50 ([1]; 24 h, read-out: IC50 U−2 OS cells (24 h)): 3.83 ± 0.49 µM
IC50 ([1]; 48 h, read-out: IC50 U−2 OS cells (48 h)): 1.99 ± 0.37 µM
CDK2 mRNA, fold of the control group [2, 8]: 0.85 ± 0.08 fold
CDK2 mRNA, fold of the control group [2, 9]: 0.80 ± 0.16 fold
CDK2 mRNA, fold of the control group [2, 10]: 0.66 ± 0.07 fold
CDK4 mRNA, fold of the control group [3, 8]: 0.53 ± 0.06 fold
CDK4 mRNA, fold of the control group [3, 9]: 0.37 ± 0.02 fold
CDK4 mRNA, fold of the control group [3, 10]: 0.29 ± 0.05 fold
p21 mRNA, fold of the control group ([4]; DS−1 2.5 µM): 10.1 ± 3.9 fold
p21 mRNA, fold of the control group ([4]; DS−1 5.0 µM): 56.8 ± 8.2 fold
p21 mRNA, fold of the control group ([4]; DS−1 7.5 µM): 90.2 ± 6.7 fold
time of trypsin digestion [5]: ≤ 210 s
expression of AKT [6]: no significant change
pAKT, fold of the control group ([7]; DS−1 5.0 µM): 2.06 ± 0.08 fold
pAKT, fold of the control group ([7]; DS−1 7.5 µM): 2.10 ± 0.15 fold
pAKT/AKT value ([7]; with the concentration of DS−1 (2.5, 5.0, 7.5 µM)): increased
